The NIST ThermoML archive (doi:10.1016/j.tca.2005.08.012)
± gives the expanded uncertainty stated by the source.

What was measured:
[1] = xn = mol fraction of the nth substance listed; details: 101 kPa, Liquid, Vibrating tube method
[2] = 101.33 kPa, Liquid, Vibrating tube method

CCCCN(CCCC)CCCC [tributylamine] + c1ccccc1
mass density [kg/m3], [1]
Details	x1 = 0.0102	x1 = 0.0206	x1 = 0.0302	x1 = 0.0404	x1 = 0.0499	x1 = 0.0596	x1 = 0.0698	x1 = 0.0796	x1 = 0.0874
303.15 K	865.38 ± 0.25	862.54 ± 0.25	860.05 ± 0.25	857.48 ± 0.25	855.12 ± 0.25	852.77 ± 0.26	850.4 ± 0.26	848.22 ± 0.26	846.53 ± 0.26
313.15 K	854.76 ± 0.25	852.03 ± 0.25	849.61 ± 0.25	847.12 ± 0.25	844.87 ± 0.25	842.65 ± 0.26	840.38 ± 0.26	838.28 ± 0.26	836.65 ± 0.26

CCN(CC)CC [triethylamine] + c1ccccc1
mass density [kg/m3], [1]
Details	x1 = 0.0102	x1 = 0.0209	x1 = 0.0311	x1 = 0.0395	x1 = 0.0501	x1 = 0.0618	x1 = 0.0712	x1 = 0.0804	x1 = 0.0919	x1 = 0.1
303.15 K	865.85 ± 0.25	863.38 ± 0.25	861.03 ± 0.25	859.07 ± 0.25	856.75 ± 0.25	854.1 ± 0.26	851.95 ± 0.26	850 ± 0.26	847.45 ± 0.26	845.76 ± 0.26
313.15 K	855.14 ± 0.25	852.62 ± 0.25	850.24 ± 0.25	848.31 ± 0.25	845.93 ± 0.25	843.31 ± 0.26	841.23 ± 0.26	839.27 ± 0.26	836.79 ± 0.26	835.08 ± 0.26

CCCNCCC [dipropylamine] + C1CCCCC1
mass density [kg/m3], [1]
Details	x1 = 0.0114	x1 = 0.0213	x1 = 0.0321	x1 = 0.0414	x1 = 0.0509	x1 = 0.0622	x1 = 0.0727	x1 = 0.0811	x1 = 0.0919
303.15 K	768.31 ± 0.25	767.65 ± 0.25	766.94 ± 0.25	766.29 ± 0.26	765.71 ± 0.26	764.96 ± 0.26	764.29 ± 0.26	763.78 ± 0.26	763.13 ± 0.26
313.15 K	758.72 ± 0.25	758.03 ± 0.25	757.3 ± 0.26	756.67 ± 0.26	756.07 ± 0.26	755.34 ± 0.26	754.66 ± 0.26	754.17 ± 0.26	753.52 ± 0.27

CCCCNCCCC [dibutylamine]
[2]
Details	mass density [kg/m3]
303.15 K	752.28 ± 0.42
313.15 K	743.44 ± 0.41

CCCN(CCC)CCC [tripropylamine] + c1ccccc1
mass density [kg/m3], [1]
Details	x1 = 0.0104	x1 = 0.0206	x1 = 0.0307	x1 = 0.0402	x1 = 0.0497	x1 = 0.0596	x1 = 0.0693	x1 = 0.0788	x1 = 0.0889
303.15 K	865.5 ± 0.25	862.82 ± 0.25	860.21 ± 0.25	857.87 ± 0.25	855.54 ± 0.25	853.15 ± 0.26	850.88 ± 0.26	848.69 ± 0.26	846.42 ± 0.26
313.15 K	854.85 ± 0.25	852.24 ± 0.25	849.71 ± 0.25	847.43 ± 0.25	845.18 ± 0.25	842.85 ± 0.26	840.66 ± 0.26	838.55 ± 0.26	836.35 ± 0.26

CCN(CC)CC [triethylamine] + C1CCCCC1
mass density [kg/m3], [1]
Details	x1 = 0.0102	x1 = 0.0192	x1 = 0.0299	x1 = 0.0422	x1 = 0.0498	x1 = 0.0618	x1 = 0.0712	x1 = 0.0799	x1 = 0.0895	x1 = 0.0995
303.15 K	768.28 ± 0.25	767.5 ± 0.25	766.58 ± 0.25	765.57 ± 0.26	764.97 ± 0.26	764.04 ± 0.26	763.35 ± 0.26	762.72 ± 0.26	762.05 ± 0.26	761.36 ± 0.27
313.15 K	758.66 ± 0.25	757.93 ± 0.25	757.05 ± 0.26	756.07 ± 0.26	755.48 ± 0.26	754.54 ± 0.26	753.86 ± 0.26	753.22 ± 0.26	752.62 ± 0.26	751.88 ± 0.27

CCCCN [1-butanamine] + c1ccccc1
mass density [kg/m3], [1]
Details	x1 = 0.0094	x1 = 0.0195	x1 = 0.0284	x1 = 0.038	x1 = 0.048	x1 = 0.0588	x1 = 0.0669	x1 = 0.0764	x1 = 0.0859
303.15 K	866.8 ± 0.25	865.19 ± 0.25	863.77 ± 0.25	862.3 ± 0.25	860.74 ± 0.25	859.06 ± 0.26	857.8 ± 0.26	856.32 ± 0.26	854.84 ± 0.26
313.15 K	856.12 ± 0.25	854.55 ± 0.25	853.17 ± 0.25	851.7 ± 0.25	850.16 ± 0.25	848.5 ± 0.26	847.27 ± 0.26	845.82 ± 0.26	844.4 ± 0.26

CCCCN [1-butanamine] + C1CCCCC1
mass density [kg/m3], [1]
Details	x1 = 0.0097	x1 = 0.0197	x1 = 0.0282	x1 = 0.038	x1 = 0.0471	x1 = 0.0581	x1 = 0.0674	x1 = 0.0724	x1 = 0.0873
303.15 K	768.39 ± 0.25	767.7 ± 0.25	767.1 ± 0.25	766.38 ± 0.26	765.76 ± 0.26	764.98 ± 0.26	764.35 ± 0.26	764.08 ± 0.26	763.14 ± 0.26
313.15 K	758.82 ± 0.25	758.12 ± 0.25	757.54 ± 0.26	756.91 ± 0.26	756.3 ± 0.26	755.61 ± 0.26	754.91 ± 0.26	754.62 ± 0.26	753.62 ± 0.26

c1ccccc1 [benzene]
[2]
Details	mass density [kg/m3]
303.15 K	868.3 ± 0.24
313.15 K	857.59 ± 0.24

CCCCNCCCC [dibutylamine] + C1CCCCC1
mass density [kg/m3], [1]
Details	x1 = 0.0109	x1 = 0.0204	x1 = 0.0298	x1 = 0.0392	x1 = 0.0493	x1 = 0.0583	x1 = 0.0689	x1 = 0.0797	x1 = 0.0881
303.15 K	768.53 ± 0.25	768.07 ± 0.25	767.62 ± 0.25	767.24 ± 0.26	766.84 ± 0.26	766.46 ± 0.26	766.05 ± 0.26	765.6 ± 0.26	765.27 ± 0.26
313.15 K	759.01 ± 0.25	758.59 ± 0.25	758.19 ± 0.26	757.79 ± 0.26	757.36 ± 0.26	756.99 ± 0.26	756.55 ± 0.26	756.11 ± 0.26	755.77 ± 0.26

CCCCN(CCCC)CCCC [tributylamine] + C1CCCCC1
mass density [kg/m3], [1]
Details	x1 = 0.0103	x1 = 0.0216	x1 = 0.0318	x1 = 0.0402	x1 = 0.0516	x1 = 0.0598	x1 = 0.0709	x1 = 0.0807	x1 = 0.0861
303.15 K	768.92 ± 0.25	768.75 ± 0.25	768.65 ± 0.25	768.57 ± 0.26	768.46 ± 0.26	768.38 ± 0.26	768.26 ± 0.26	768.18 ± 0.26	768.14 ± 0.26
313.15 K	759.38 ± 0.25	759.25 ± 0.25	759.17 ± 0.26	759.09 ± 0.26	758.99 ± 0.26	758.97 ± 0.26	758.92 ± 0.26	758.91 ± 0.26	758.99 ± 0.26

CCCN(CCC)CCC [tripropylamine]
[2]
Details	mass density [kg/m3]
303.15 K	749.15 ± 0.41
313.15 K	740.41 ± 0.41

CCCN [propan-1-amine] + c1ccccc1
mass density [kg/m3], [1]
Details	x1 = 0.0079	x1 = 0.0186	x1 = 0.028	x1 = 0.0366	x1 = 0.047	x1 = 0.0579	x1 = 0.0659	x1 = 0.0759	x1 = 0.0844
303.15 K	867.07 ± 0.25	865.41 ± 0.25	863.91 ± 0.25	862.58 ± 0.25	860.86 ± 0.25	859.18 ± 0.26	857.86 ± 0.26	856.37 ± 0.26	854.97 ± 0.26
313.15 K	856.39 ± 0.25	854.75 ± 0.25	853.34 ± 0.25	852.02 ± 0.25	850.44 ± 0.25	848.78 ± 0.25	847.56 ± 0.26	846.03 ± 0.26	844.73 ± 0.26

CCCCN(CCCC)CCCC [tributylamine]
[2]
Details	mass density [kg/m3]
303.15 K	770.21 ± 0.42
313.15 K	763.11 ± 0.42

CCCCN [1-butanamine]
[2]
Details	mass density [kg/m3]
303.15 K	728.65 ± 0.41
313.15 K	719.17 ± 0.41

CCCCNCCCC [dibutylamine] + c1ccccc1
mass density [kg/m3], [1]
Details	x1 = 0.0108	x1 = 0.0201	x1 = 0.03	x1 = 0.039	x1 = 0.0487	x1 = 0.0593	x1 = 0.0689	x1 = 0.0797	x1 = 0.0892
303.15 K	865.75 ± 0.25	863.58 ± 0.25	861.33 ± 0.25	859.32 ± 0.25	857.18 ± 0.25	854.88 ± 0.26	852.86 ± 0.26	850.62 ± 0.26	848.69 ± 0.26
313.15 K	855.17 ± 0.25	853.13 ± 0.25	851 ± 0.25	849.09 ± 0.25	847.05 ± 0.25	844.85 ± 0.26	842.92 ± 0.26	840.79 ± 0.26	838.92 ± 0.26

C1CCCCC1 [cyclohexane]
[2]
Details	mass density [kg/m3]
303.15 K	769.1 ± 0.25
313.15 K	759.52 ± 0.25

CCN(CC)CC [triethylamine]
[2]
Details	mass density [kg/m3]
303.15 K	718.44 ± 0.41
313.15 K	709.05 ± 0.41

CCCNCCC [dipropylamine] + c1ccccc1
mass density [kg/m3], [1]
Details	x1 = 0.0105	x1 = 0.0207	x1 = 0.0306	x1 = 0.039	x1 = 0.0508	x1 = 0.0614	x1 = 0.0723	x1 = 0.0812	x1 = 0.0917
303.15 K	865.97 ± 0.25	863.74 ± 0.25	861.67 ± 0.25	859.91 ± 0.25	857.5 ± 0.25	855.36 ± 0.26	853.17 ± 0.26	851.42 ± 0.26	849.36 ± 0.26
313.15 K	855.38 ± 0.25	853.26 ± 0.25	851.24 ± 0.25	849.55 ± 0.25	847.19 ± 0.25	845.11 ± 0.26	843 ± 0.26	841.29 ± 0.26	839.28 ± 0.26

CCCN(CCC)CCC [tripropylamine] + C1CCCCC1
mass density [kg/m3], [1]
Details	x1 = 0.0109	x1 = 0.02	x1 = 0.0305	x1 = 0.0406	x1 = 0.0511	x1 = 0.0596	x1 = 0.0693	x1 = 0.0787	x1 = 0.0878
303.15 K	768.54 ± 0.25	768.11 ± 0.25	767.6 ± 0.25	767.14 ± 0.26	766.65 ± 0.26	766.35 ± 0.26	765.93 ± 0.26	765.54 ± 0.26	765.16 ± 0.26
313.15 K	758.99 ± 0.25	758.57 ± 0.25	758.14 ± 0.26	757.71 ± 0.26	757.28 ± 0.26	756.93 ± 0.26	756.56 ± 0.26	756.18 ± 0.26	755.84 ± 0.26

CCCNCCC [dipropylamine]
[2]
Details	mass density [kg/m3]
303.15 K	731.21 ± 0.41
313.15 K	726.15 ± 0.41

CCCN [propan-1-amine] + C1CCCCC1
mass density [kg/m3], [1]
Details	x1 = 0.0076	x1 = 0.0169	x1 = 0.0282	x1 = 0.0365	x1 = 0.0483	x1 = 0.057	x1 = 0.0652	x1 = 0.0747	x1 = 0.0859
303.15 K	768.47 ± 0.25	767.75 ± 0.25	766.86 ± 0.25	766.22 ± 0.26	765.3 ± 0.26	764.61 ± 0.26	763.97 ± 0.26	763.25 ± 0.26	762.47 ± 0.26
313.15 K	758.92 ± 0.25	758.21 ± 0.25	757.38 ± 0.26	756.8 ± 0.26	755.92 ± 0.26	755.27 ± 0.26	754.68 ± 0.26	753.96 ± 0.26	753.15 ± 0.26

CCCN [propan-1-amine]
[2]
Details	mass density [kg/m3]
303.15 K	706.1 ± 0.41
313.15 K	696.04 ± 0.4
